Measurements as given in ChEMBL document CHEMBL1121443, “Role of iodine in thyroid hormones: molecular conformation of a halogen-free hormone analogue” (1980).

What was measured:
[1] = In vivo percentage antigoiter activity of compound was determined; assay type: functional, Rattus norvegicus; parameters: concentration or dose not given beside the values
Rattus norvegicus = species on record: Rattus norvegicus; assay: In vitro binding affinity of compound to the rat Hepatic nuclear protein receptors was determined
[2] = In vitro percentage thymocyte activity of compound was determined in rat; assay type: functional; parameters: concentration or dose not given beside the values
[3] = biological target: T1, Thyroxine-binding globulin (Homo sapiens) (UniProt P05543); assay: Percentage thyroxine-binding globulin (TBG) binding activity of compound was determined in human serum; assay type: cell-free
T1 sequence (whole entry): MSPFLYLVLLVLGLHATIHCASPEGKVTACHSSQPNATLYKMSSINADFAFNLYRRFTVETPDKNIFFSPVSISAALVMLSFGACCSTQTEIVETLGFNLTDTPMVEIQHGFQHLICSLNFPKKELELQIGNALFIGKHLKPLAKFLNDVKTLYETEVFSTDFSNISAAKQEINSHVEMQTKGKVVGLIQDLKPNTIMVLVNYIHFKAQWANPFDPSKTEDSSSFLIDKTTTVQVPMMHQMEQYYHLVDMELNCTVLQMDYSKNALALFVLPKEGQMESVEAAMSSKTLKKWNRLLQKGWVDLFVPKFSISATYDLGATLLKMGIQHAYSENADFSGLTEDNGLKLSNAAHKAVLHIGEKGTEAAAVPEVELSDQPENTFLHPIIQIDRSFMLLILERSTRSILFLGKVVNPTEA

[4] = biological target: T1, Thyroxine-binding globulin (Homo sapiens); assay: Percentage thyroxine-binding globulin binding activity of compound was determined in human serum; assay type: cell-free

SMILES	Activity [1]	Activity (Rattus norvegicus)	Activity [2]	Activity [3]	Activity [4]
Cc1cc(Oc2c(C)cc(CC(N)C(=O)O)cc2C)cc(C)c1O (centres undefined)	0.54%	0.1%	23%	0%	–
N[C@@H](Cc1cc(I)c(Oc2ccc(O)c(I)c2)c(I)c1)C(=O)O [LIOTHYRONINE]	100%	–	100%	9%	–
N[C@@H](Cc1cc(I)c(Oc2cc(I)c(O)c(I)c2)c(I)c1)C(=O)O [LEVOTHYROXINE]	18%	12.5%	30%	–	100%
Cc1cc(Oc2c(C)cc(CC(N)C(=O)O)cc2C)ccc1O (centres undefined)	0.36%	0.1%	23%	0%	–
Cc1cc(CC(N)C(=O)O)cc(C)c1Oc1ccc(O)c(C(C)C)c1 (centres undefined)	3.6%	0.7%	48%	0.05%	–
